According to PubChem BioAssay AID1259407 (Chemical Carcinogenesis Research Information System (CCRIS), 2018):
Active and inactive are the calls of the source. The rule behind the calls is not given here.

Test system: CCRIS mutagenicity, Ames/micronucleus/aberration tests
Assay: CCRIS mutagenicity studies
[1] = Test System: AMES SALMONELLA TYPHIMURIUM, Strain/Indicator: TA98, Metabolic Activation: HAMSTER, LIVER, S-9, AROCLOR 1254, Method: PREINCUBATION
[2] = Test System: AMES SALMONELLA TYPHIMURIUM, Strain/Indicator: TA98, Metabolic Activation: NONE, Method: PREINCUBATION
[3] = Test System: AMES SALMONELLA TYPHIMURIUM, Strain/Indicator: TA98, Metabolic Activation: RAT, LIVER, S-9, AROCLOR 1254, Method: PREINCUBATION
[4] = Test System: AMES SALMONELLA TYPHIMURIUM, Strain/Indicator: TA100, Metabolic Activation: HAMSTER, LIVER, S-9, AROCLOR 1254, Method: PREINCUBATION
[5] = Test System: AMES SALMONELLA TYPHIMURIUM, Strain/Indicator: TA100, Metabolic Activation: NONE, Method: PREINCUBATION
[6] = Test System: AMES SALMONELLA TYPHIMURIUM, Strain/Indicator: TA100, Metabolic Activation: RAT, LIVER, S-9, AROCLOR 1254, Method: PREINCUBATION
[7] = Test System: AMES SALMONELLA TYPHIMURIUM, Strain/Indicator: TA1535, Metabolic Activation: NONE, Method: PREINCUBATION
[8] = Test System: AMES SALMONELLA TYPHIMURIUM, Strain/Indicator: TA1537, Metabolic Activation: HAMSTER, LIVER, S-9, AROCLOR 1254, Method: PREINCUBATION
[9] = Test System: AMES SALMONELLA TYPHIMURIUM, Strain/Indicator: TA1537, Metabolic Activation: NONE, Method: PREINCUBATION
[10] = Test System: AMES SALMONELLA TYPHIMURIUM, Strain/Indicator: TA1537, Metabolic Activation: RAT, LIVER, S-9, AROCLOR 1254, Method: PREINCUBATION
[11] = Test System: AMES SALMONELLA TYPHIMURIUM, Strain/Indicator: TA100, Metabolic Activation: NONE, Method: STANDARD PLATE

With `C1COCOC1` the mutagenic call [1] was “inactive; negative”, the mutagenic call [2] was “inactive; negative” and the mutagenic call [3] was “inactive; negative”. For the same compound, the mutagenic call [4] was “inactive; negative”, the mutagenic call [5] was “inactive; negative” and the mutagenic call [6] was “inactive; negative”. For the same compound, the mutagenic call (Test System: AMES SALMONELLA TYPHIMURIUM, Strain/Indicator: TA1535, Metabolic Activation: HAMSTER, LIVER, S-9, AROCLOR 1254, Method: PREINCUBATION) was “inactive; negative”, the mutagenic call [7] was “inactive; negative” and the mutagenic call (Test System: AMES SALMONELLA TYPHIMURIUM, Strain/Indicator: TA1535, Metabolic Activation: RAT, LIVER, S-9, AROCLOR 1254, Method: PREINCUBATION) was “inactive; negative”. The mutagenic call [8] was “inactive; negative”, the mutagenic call [9] was “inactive; negative” and the mutagenic call [10] was “inactive; negative”.
For `CC1CNCC(C)O1` (stereo not given), the mutagenic call [1] was “inactive; negative”, the mutagenic call [2] was “inactive; negative” and the mutagenic call [3] was “inactive; negative”. The mutagenic call [4] was “inactive; negative”, the mutagenic call [5] was “inactive; negative” and the mutagenic call [6] was “inactive; negative”. For the same compound, the mutagenic call [8] was “inactive; negative”, the mutagenic call [9] was “inactive; negative” and the mutagenic call [10] was “inactive; negative”.
For `CC(=O)N(O)c1ccc(Oc2ccc(Cl)cc2)cc1`, the mutagenic call (Test System: AMES SALMONELLA TYPHIMURIUM, Strain/Indicator: TA100, Metabolic Activation: GUINEA PIG, LIVER, MICROSOMAL FRACTION, PCB) was “active; positive”, the mutagenic call (Test System: AMES SALMONELLA TYPHIMURIUM, Strain/Indicator: TA100, Metabolic Activation: GUINEA PIG, LIVER, S-9, PCB) was “active; positive” and the mutagenic call (Test System: AMES SALMONELLA TYPHIMURIUM, Strain/Indicator: TA100, Metabolic Activation: GUINEA PIG, LIVER, S-105, PCB) was “active; positive”. For the same compound, the mutagenic call [11] was “inactive; negative” and the mutagenic call (Test System: AMES SALMONELLA TYPHIMURIUM, Strain/Indicator: TA100, Metabolic Activation: RAT, LIVER, S-9, KANECLOR 500, Method: STANDARD PLATE) was “active; positive”.
For `Nc1c(O)ccc2ccccc12`, the mutagenic call [6] was “inactive; negative”.
`CC(=O)Nc1ccc(Cc2ccc(N)c(Cl)c2)cc1Cl` was tested, and the mutagenic call [5] was “inactive; negative” and the mutagenic call (Test System: AMES SALMONELLA TYPHIMURIUM, Strain/Indicator: TA100, Metabolic Activation: RAT, LIVER, S-9, AROCLOR 1254 (50, 100 OR 200 µL), Method: PREINCUBATION) was “active; positive”.
With `Fc1cc(F)c2ncccc2c1` the mutagenic call (Test System: AMES SALMONELLA TYPHIMURIUM, Strain/Indicator: TA100, Metabolic Activation: RAT LIVER S-9, PHENOBARBITAL AND 5,6-BENZOFLAVONE, Method: PREINCUBATION) was “active; positive”.
In the case of `N#Cc1cc([N+](=O)[O-])ccc1N=Nc1ccc(N(CCO)CCO)cc1`, the mutagenic call (Test System: AMES SALMONELLA TYPHIMURIUM, Strain/Indicator: TA98, Metabolic Activation: NONE, Method: STANDARD PLATE) is reported as “active; positive”, the mutagenic call (Test System: AMES SALMONELLA TYPHIMURIUM, Strain/Indicator: TA98, Metabolic Activation: RAT, LIVER, S-9, AROCLOR 1254, Method: STANDARD PLATE) is reported as “active; positive” and the mutagenic call [11] is reported as “active; positive”. For the same compound, the mutagenic call (Test System: AMES SALMONELLA TYPHIMURIUM, Strain/Indicator: TA100, Metabolic Activation: RAT, LIVER, S-9, AROCLOR 1254, Method: STANDARD PLATE) was “active; positive”, the mutagenic call (Test System: AMES SALMONELLA TYPHIMURIUM, Strain/Indicator: TA1535, Metabolic Activation: NONE, Method: STANDARD PLATE) was “inactive; negative” and the mutagenic call (Test System: AMES SALMONELLA TYPHIMURIUM, Strain/Indicator: TA1535, Metabolic Activation: RAT, LIVER, S-9, AROCLOR 1254, Method: STANDARD PLATE) was “inactive; negative”. For the same compound, the mutagenic call (Test System: AMES SALMONELLA TYPHIMURIUM, Strain/Indicator: TA1537, Metabolic Activation: NONE, Method: STANDARD PLATE) was “active; positive”, the mutagenic call (Test System: AMES SALMONELLA TYPHIMURIUM, Strain/Indicator: TA1537, Metabolic Activation: RAT, LIVER, S-9, AROCLOR 1254, Method: STANDARD PLATE) was “active; positive” and the mutagenic call (Test System: AMES SALMONELLA TYPHIMURIUM, Strain/Indicator: TA1538, Metabolic Activation: NONE, Method: STANDARD PLATE) was “active; positive”. For the same compound, the mutagenic call (Test System: AMES SALMONELLA TYPHIMURIUM, Strain/Indicator: TA1538, Metabolic Activation: RAT, LIVER, S-9, AROCLOR 1254, Method: STANDARD PLATE) was “active; positive”, the mutagenic call (Test System: CHINESE HAMSTER V-79, Strain/Indicator: V-79 (HGPRT)/6-THIOGUANINE, Metabolic Activation: RAT, LIVER, S-9, AROCLOR 1254) was “inactive; negative” and the mutagenic call (Test System: CHINESE HAMSTER V-79, Strain/Indicator: V-79/6-THIOGUANINE, Metabolic Activation: NONE) was “inactive; negative”. For the same compound, the mutagenic call (Test System: UDS RAT HEPATOCYTES, Strain/Indicator: THY INCORP, Metabolic Activation: NONE, Method: AUTORADIOGRAPHY) was “inactive; negative”.
`CC(=O)OC[C@@]1(O)CC23CC[C@@H]4c5ccoc5C=C[C@@]4(C)[C@@H]2CC[C@@H]1C3` was tested, and the mutagenic call (Test System: AMES SALMONELLA TYPHIMURIUM, Strain/Indicator: TM677, Metabolic Activation: NONE, Method: PREINCUBATION) was “inactive; negative” and the mutagenic call (Test System: AMES SALMONELLA TYPHIMURIUM, Strain/Indicator: TM677, Metabolic Activation: RAT, LIVER, S-9, AROCLOR 1254, Method: PREINCUBATION) was “inactive; negative”.
In the case of `COc1c(O)cc2c3c(cc4ccccc4c13)NC2=O`, the mutagenic call (Test System: AMES SALMONELLA TYPHIMURIUM, Strain/Indicator: TM677/8-AZAGUANINE, Metabolic Activation: NONE, Method: SUSPENSION/PLATE) is reported as “inactive; negative”.
In the case of `CSCCC=O`, the mutagenic call [2] is reported as “inactive; negative”, the mutagenic call (Test System: AMES SALMONELLA TYPHIMURIUM, Strain/Indicator: TA98, Metabolic Activation: RAT LIVER S-9, AROCLOR 1254, Method: PREINCUBATION) is reported as “inactive; negative” and the mutagenic call [5] is reported as “inactive; negative”. The mutagenic call (Test System: AMES SALMONELLA TYPHIMURIUM, Strain/Indicator: TA100, Metabolic Activation: RAT LIVER S-9, AROCLOR 1254, Method: PREINCUBATION) was “inactive; negative”, the mutagenic call [7] was “inactive; negative” and the mutagenic call (Test System: AMES SALMONELLA TYPHIMURIUM, Strain/Indicator: TA1535, Metabolic Activation: RAT LIVER S-9, AROCLOR 1254, Method: PREINCUBATION) was “inactive; negative”. The mutagenic call [9] was “inactive; negative”, the mutagenic call (Test System: AMES SALMONELLA TYPHIMURIUM, Strain/Indicator: TA1537, Metabolic Activation: RAT LIVER S-9, AROCLOR 1254, Method: PREINCUBATION) was “inactive; negative” and the mutagenic call (Test System: AMES SALMONELLA TYPHIMURIUM, Strain/Indicator: TA1538, Metabolic Activation: NONE, Method: PREINCUBATION) was “inactive; negative”. The mutagenic call (Test System: AMES SALMONELLA TYPHIMURIUM, Strain/Indicator: TA1538, Metabolic Activation: RAT LIVER S-9, AROCLOR 1254, Method: PREINCUBATION) was “inactive; negative”, the mutagenic call (Test System: MOUSE LYMPHOMA, Strain/Indicator: L5178Y (TK+/TK-), Metabolic Activation: NONE, Method: SUSPENSION/PLATE) was “active; positive” and the mutagenic call (Test System: MOUSE LYMPHOMA, Strain/Indicator: L5178Y (TK+/TK-), Metabolic Activation: RAT LIVER S-9, AROCLOR 1254, Method: SUSPENSION/PLATE) was “active; positive”.
With `c1ccc2c(OCC3CO3)nsc2c1` (stereo not given) the mutagenic call [11] was “active; positive”.
In the case of `ClCc1c2ccccc2c(Cl)c2ccccc12`, the mutagenic call [11] is reported as “active; positive”.
`CN=NNc1ccc(C(=O)O)cc1` was tested, and the mutagenic call (Test System: AMES SALMONELLA TYPHIMURIUM, Strain/Indicator: TA92, Metabolic Activation: NONE, Method: STANDARD PLATE) was “active; positive” and the mutagenic call (Test System: E. COLI B, Strain/Indicator: TM9, Metabolic Activation: NONE, Method: STANDARD PLATE) was “active; positive”.
With `C#CCOS(=O)(=O)c1ccc(C)cc1` the mutagenic call [11] was “inactive; negative” and the mutagenic call (Test System: AMES SALMONELLA TYPHIMURIUM, Strain/Indicator: TA100, Metabolic Activation: RAT, LIVER, S-9, Method: STANDARD PLATE) was “active; positive”.
In the case of `COc1nsc2c([N+](=O)[O-])cccc12`, the mutagenic call [11] is reported as “active; positive”.
